The source of these data is patent publication US20250115600A1, “COVALENT MODIFIERS OF AKT1 AND USES THEREOF” (Terremoto Biosciences, Inc., priority 2022, published 2025).

The IC50 is the concentration needed to halve the response being measured. A higher IC50 goes with a need for much substance.

What all share (test): Live cell target engagement (NanoBRET) in HEK293 cells
Common to all, as to assay type: cell-based

In one experiment the target is AKT1 E17K (Homo sapiens (Human), UniProt P31749, E17K). The note with it: for IC50: HEK293, 2 hours at 37° C.
A further experiment concerns the target AKT1 WT (Homo sapiens (Human), UniProt P31749). The note with it: HEK293, 2 hours at 37° C.
The target of another experiment is AKT2 (Homo sapiens (Human), UniProt P31751). To be noted: HEK293, 2 hours at 37° C.

Where only a bound is given, the exact number is not on record here.

AKT1 WT, sequence (P31749 whole entry): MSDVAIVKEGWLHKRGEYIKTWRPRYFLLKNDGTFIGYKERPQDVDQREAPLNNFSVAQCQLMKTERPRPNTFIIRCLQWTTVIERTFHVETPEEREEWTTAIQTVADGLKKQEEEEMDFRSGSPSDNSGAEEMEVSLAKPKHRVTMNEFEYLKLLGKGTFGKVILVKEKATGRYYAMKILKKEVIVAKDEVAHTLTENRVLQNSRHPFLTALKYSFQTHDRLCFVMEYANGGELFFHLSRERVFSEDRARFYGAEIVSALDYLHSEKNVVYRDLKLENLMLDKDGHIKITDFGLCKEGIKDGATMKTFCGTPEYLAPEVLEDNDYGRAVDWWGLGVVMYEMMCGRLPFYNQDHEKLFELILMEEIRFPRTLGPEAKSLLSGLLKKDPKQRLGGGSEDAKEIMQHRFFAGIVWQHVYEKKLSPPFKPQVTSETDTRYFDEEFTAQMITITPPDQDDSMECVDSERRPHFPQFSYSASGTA
AKT2, sequence (P31751 whole entry): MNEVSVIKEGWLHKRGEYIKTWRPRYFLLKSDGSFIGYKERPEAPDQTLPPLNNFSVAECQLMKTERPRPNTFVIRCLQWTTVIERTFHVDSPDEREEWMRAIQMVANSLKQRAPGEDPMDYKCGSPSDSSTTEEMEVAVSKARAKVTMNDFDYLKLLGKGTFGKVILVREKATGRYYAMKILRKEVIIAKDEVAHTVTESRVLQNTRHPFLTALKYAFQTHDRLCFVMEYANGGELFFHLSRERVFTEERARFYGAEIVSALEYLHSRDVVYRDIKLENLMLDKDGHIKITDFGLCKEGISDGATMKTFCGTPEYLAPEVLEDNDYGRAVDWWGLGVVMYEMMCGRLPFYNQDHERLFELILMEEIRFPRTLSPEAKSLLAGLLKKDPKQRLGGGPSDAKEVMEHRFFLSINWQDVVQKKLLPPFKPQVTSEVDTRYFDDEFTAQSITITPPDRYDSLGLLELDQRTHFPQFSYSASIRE
AKT1 E17K, sequence (P31749 whole entry E17K): as the sequence (P31749 whole entry) above, with E17K counted along it

In the case of `Nc1ncccc1-c1nc2ccc(-c3cccc(N4CCC(N5CCCC5=O)CC4)c3F)nc2n1-c1ccc(CNC(=O)Cc2ccc(C=O)c(O)c2)cc1` [Compound 42, N-({4-[2-(2-aminopyridin-3-yl)-5-{2-fluoro-3-[4-(2-oxopyrrolidin-1-yl)piperidin-1-yl]phenyl}imidazo[4,5-b]pyridin-3-yl]phenyl}methyl)-2-(4-formyl-3-hydroxyphenyl)acetamide], at AKT1 E17K, the “AKT1 E17K IC50: Selectivity vs AKT1 WT” value is on record as 1.7, the “AKT1 E17K IC50: Selectivity vs AKT2” value was found to be 4.8 and the IC50 is below 100 nM. The compound also gave an IC50 against AKT1 WT below 100 nM. At AKT2, the IC50 was below 100 nM.
`CN(C)C(=O)Nc1cc(CC(=O)NCc2ccc(-n3c(-c4cccnc4N)nc4cccnc43)cc2)ccc1C=O` [Compound 43, N-(4-(2-(2-aminopyridin-3-yl)-3H-imidazo[4,5-b]pyridin-3-yl)benzyl)-2-(3-(3,3-dimethylureido)-4-formylphenyl)acetamide]: on AKT1 E17K, the “AKT1 E17K IC50: Selectivity vs AKT1 WT” value was determined as 4.5, the “AKT1 E17K IC50: Selectivity vs AKT2” value is above 150 and the IC50 is below 100 nM. At AKT1 WT, this compound displayed an IC50 of 100 to 500 nM. The IC50 against AKT2 was above 500 nM.
On to `Cn1cc(C(=O)Nc2cc(CC(=O)NCc3ccc(-n4c(-c5cccnc5N)nc5cccnc54)cc3)ccc2C=O)cn1` [Compound 44, N-(5-(2-((4-(2-(2-aminopyridin-3-yl)-3H-imidazo[4,5-b]pyridin-3-yl)benzyl)amino)-2-oxoethyl)-2-formylphenyl)-1-methyl-1H-pyrazole-4-carboxamide], for which, at AKT1 E17K, the “AKT1 E17K IC50: Selectivity vs AKT1 WT” value came to 3.6, the “AKT1 E17K IC50: Selectivity vs AKT2” value was found to be 34 and the IC50 is 100 to 500 nM. The IC50 at AKT1 WT is above 500 nM. Besides, the 50% inhibitory concentration (IC50) against AKT2 is above 500 nM.
Regarding `Nc1ncccc1-c1nc2cccnc2n1-c1ccc(CNC(=O)c2cc(C=O)c(O)cn2)cc1` [Compound 45, N-(4-(2-(2-aminopyridin-3-yl)-3H-imidazo[4,5-b]pyridin-3-yl)benzyl)-4-formyl-5-hydroxypicolinamide], the “AKT1 E17K IC50: Selectivity vs AKT1 WT” value at AKT1 E17K stood at 2.7. The “AKT1 E17K IC50: Selectivity vs AKT2” value at AKT1 E17K is on record as above 7.7. Besides, the half-inhibitory concentration (IC50) against AKT1 E17K, against AKT1 WT and at AKT2 was above 500 nM throughout.
Turning to `Nc1ncccc1-c1nc2cccnc2n1-c1ccc(CNC(=O)c2cnc(O)c(C=O)c2)cc1` [Compound 46, N-(4-(2-(2-aminopyridin-3-yl)-3H-imidazo[4,5-b]pyridin-3-yl)benzyl)-5-formyl-6-hydroxynicotinamide], the IC50 on AKT1 E17K, against AKT1 WT and against AKT2 was above 500 nM each time.
On to `Nc1ncccc1-c1nc2cccnc2n1-c1ccc(CNC(=O)c2ccc(O)c(C=O)n2)cc1` [Compound 47, N-(4-(2-(2-aminopyridin-3-yl)-3H-imidazo[4,5-b]pyridin-3-yl)benzyl)-6-formyl-5-hydroxypicolinamide], for which, at AKT1 E17K, the “AKT1 E17K IC50: Selectivity vs AKT1 WT” value is 1.8, the “AKT1 E17K IC50: Selectivity vs AKT2” value worked out at 3.7 and the IC50 is above 500 nM. On AKT1 WT, this compound displayed an IC50 above 500 nM. The IC50 on AKT2 is above 500 nM.
Turning to `Nc1ncccc1-c1nc2cccnc2n1-c1ccc(CNC(=O)Cc2ccc(C=O)c(NC(=O)C3CC3)c2)cc1` [Compound 48, N-(5-(2-((4-(2-(2-aminopyridin-3-yl)-3H-imidazo[4,5-b]pyridin-3-yl)benzyl)amino)-2-oxoethyl)-2-formylphenyl)cyclopropanecarboxamide], at AKT1 E17K, the “AKT1 E17K IC50: Selectivity vs AKT1 WT” value was found to be 8.5, the “AKT1 E17K IC50: Selectivity vs AKT2” value is on record as 120 and the IC50 is below 100 nM. On AKT1 WT, this compound had an IC50 of 100 to 500 nM. The same compound yielded an IC50 on AKT2 above 500 nM.
Consider `Nc1ncccc1-c1nc2ccc(-c3ccccc3)nc2n1-c1ccc(CNC(=O)c2cc(Br)c(O)c(C=O)c2)cc1` [Compound 50, N-({4-[2-(2-aminopyridin-3-yl)-5-phenylimidazo[4,5-b]pyridin-3-yl]phenyl}methyl)-3-bromo-5-formyl-4-hydroxybenzamide], for which, on AKT1 E17K, the “AKT1 E17K IC50: Selectivity vs AKT1 WT” value amounted to 2.1, the “AKT1 E17K IC50: Selectivity vs AKT2” value was 32 and the IC50 was below 100 nM. For the same compound, on AKT1 WT, the IC50 was below 100 nM. For the same compound, on AKT2, the IC50 was 100 to 500 nM.
In the case of `CC(C)(O)C#Cc1ccc2nc(-c3cccnc3N)n(-c3ccc(CNC(=O)Cc4ccc(C=O)c(O)c4)cc3)c2n1` [Compound 51, N-(4-(2-(2-aminopyridin-3-yl)-5-(3-hydroxy-3-methylbut-1-yn-1-yl)-3H-imidazo[4,5-b]pyridin-3-yl)benzyl)-2-(4-formyl-3-hydroxyphenyl)acetamide], on AKT1 E17K, the “AKT1 E17K IC50: Selectivity vs AKT1 WT” value was found to be 3.8, the “AKT1 E17K IC50: Selectivity vs AKT2” value is reported as 90 and the IC50 is below 100 nM. On AKT1 WT, this compound had an IC50 of 100 to 500 nM. For the same compound, the IC50 against AKT2 is above 500 nM.
For `Nc1ncccc1-c1nc2ccc(-c3ccccc3F)nc2n1-c1ccc(CNC(=O)Cc2ccc(C=O)c(O)c2)cc1` [Compound 54, N-({4-[2-(2-aminopyridin-3-yl)-5-(2-fluorophenyl)imidazo[4,5-b]pyridin-3-yl]phenyl}methyl)-2-(4-formyl-3-hydroxyphenyl)acetamide], the “AKT1 E17K IC50: Selectivity vs AKT1 WT” value on AKT1 E17K worked out at 1.8. For the same compound, the “AKT1 E17K IC50: Selectivity vs AKT2” value at AKT1 E17K was 64. The IC50 is below 100 nM on AKT1 E17K, below 100 nM at AKT1 WT and 100 to 500 nM on AKT2.
On to `Nc1ncccc1-c1nc2ccc(-c3cccc(N4CCOCC4)c3)nc2n1-c1ccc(CNC(=O)Cc2ccc(C=O)c(O)c2)cc1` [Compound 55, N-({4-[2-(2-aminopyridin-3-yl)-5-[3-(morpholin-4-yl)phenyl]imidazo[4,5-b]pyridin-3-yl]phenyl}methyl)-2-(4-formyl-3-hydroxyphenyl)acetamide], for which, at AKT1 E17K, the “AKT1 E17K IC50: Selectivity vs AKT1 WT” value came out at 0.93. For the same compound, the “AKT1 E17K IC50: Selectivity vs AKT2” value at AKT1 E17K amounted to 6.8. Also, the IC50 against AKT1 E17K, against AKT1 WT and against AKT2 was below 100 nM throughout.
With `CN(CCc1ccc(C=O)c(O)c1)C(=O)c1ccc(-n2c(-c3cccnc3N)nc3ccc(-c4ccccc4)nc32)cc1` [Compound 57, 4-[2-(2-aminopyridin-3-yl)-5-phenylimidazo[4,5-b]pyridin-3-yl]-N-[2-(4-formyl-3-hydroxyphenyl)ethyl]-N-methylbenzamide], the “AKT1 E17K IC50: Selectivity vs AKT1 WT” value on AKT1 E17K turned out to be 2.7. The “AKT1 E17K IC50: Selectivity vs AKT2” value at AKT1 E17K was 13. The IC50 is 100 to 500 nM against AKT1 E17K, 100 to 500 nM against AKT1 WT and above 500 nM at AKT2.
`Nc1ncccc1-c1nc2ccc(-c3ccccc3)nc2n1-c1ccc(CNC(=O)C2(c3ccc(C=O)c(O)c3F)CC2)cc1` [Compound 59, N-(4-(2-(2-aminopyridin-3-yl)-5-phenyl-3H-imidazo[4,5-b]pyridin-3-yl)benzyl)-1-(2-fluoro-4-formyl-3-hydroxyphenyl)cyclopropane-1-carboxamide]: at AKT1 E17K, the “AKT1 E17K IC50: Selectivity vs AKT1 WT” value is given as 5.7, the “AKT1 E17K IC50: Selectivity vs AKT2” value is 39 and the IC50 is 100 to 500 nM. The same compound registered an IC50 at AKT1 WT above 500 nM. Further, the IC50 against AKT2 was above 500 nM.
As to `CC(C)(C(=O)NCc1ccc(-n2c(-c3cccnc3N)nc3ccc(-c4ccccc4)nc32)cc1)c1ccc(C=O)c(O)c1` [Compound 60, N-({4-[2-(2-aminopyridin-3-yl)-5-phenylimidazo[4,5-b]pyridin-3-yl]phenyl}methyl)-2-(4-formyl-3-hydroxyphenyl)-2-methylpropanamide], at AKT1 E17K, the “AKT1 E17K IC50: Selectivity vs AKT1 WT” value amounted to 8.2, the “AKT1 E17K IC50: Selectivity vs AKT2” value stood at 45 and the IC50 was below 100 nM. Moreover, the IC50 at AKT1 WT was in the range of 100 to 500 nM. Besides, the IC50 against AKT2 was above 500 nM.
Taken in the same sequence, the figures for `Nc1ncccc1-c1nc2ccc(-c3ccncc3)nc2n1-c1ccc(CNC(=O)Cc2ccc(C=O)c(O)c2)cc1` [Compound 61, N-({4-[2-(2-aminopyridin-3-yl)-5-(pyridin-4-yl)imidazo[4,5-b]pyridin-3-yl]phenyl}methyl)-2-(4-formyl-3-hydroxyphenyl)acetamide] were 3, 66, below 100 nM, below 100 nM and above 500 nM.
Taken in the same sequence, the figures for `Nc1ncccc1-c1nc2ccc(-c3ccccn3)nc2n1-c1ccc(CNC(=O)Cc2ccc(C=O)c(O)c2)cc1` [Compound 62, N-({4-[2-(2-aminopyridin-3-yl)-5-(pyridin-2-yl)imidazo[4,5-b]pyridin-3-yl]phenyl}methyl)-2-(4-formyl-3-hydroxyphenyl)acetamide] were 2.7, 47, below 100 nM, below 100 nM and above 500 nM.
In the case of `Nc1ncccc1-c1nc2ccc(-c3ccccc3)nc2n1-c1ccc(CNC(=O)Cc2ccc(C=O)c(O)c2Cl)cc1` [Compound 63, N-({4-[2-(2-aminopyridin-3-yl)-5-phenylimidazo[4,5-b]pyridin-3-yl]phenyl}methyl)-2-(2-chloro-4-formyl-3-hydroxyphenyl)acetamide], at AKT1 E17K, the “AKT1 E17K IC50: Selectivity vs AKT1 WT” value stood at 1.2, the “AKT1 E17K IC50: Selectivity vs AKT2” value came out at 8.3 and the IC50 was below 100 nM. The same compound came in with an IC50 against AKT1 WT below 100 nM. Besides, on AKT2, the IC50 lay in the range of 100 to 500 nM.
Turning to `CN(Cc1ccc(-n2c(-c3cccnc3N)nc3ccc(-c4ccccc4)nc32)cc1)C(=O)Cc1ccc(C=O)c(O)c1` [Compound 64, N-(4-(2-(2-aminopyridin-3-yl)-5-phenyl-3H-imidazo[4,5-b]pyridin-3-yl)benzyl)-2-(4-formyl-3-hydroxyphenyl)-N-methylacetamide], at AKT1 E17K, the “AKT1 E17K IC50: Selectivity vs AKT1 WT” value turned out to be 0.5, the “AKT1 E17K IC50: Selectivity vs AKT2” value is recorded as 2 and the IC50 was below 100 nM. Moreover, at AKT1 WT, the IC50 was below 100 nM. The compound also had an IC50 at AKT2 of 100 to 500 nM.
